# Data: patent US11634434B2, “Bifunctional alpha-synuclein binding agents and uses thereof” (University of Saskatchewan, priority 2016, dated 2023)
# Read-outs that look alike come from different tables or passages of the source.
# Tests used:
# [1] = target: T1, alpha-synuclein (Homo sapiens, UniProt P37840); test: Nanopore analysis of alpha-synuclein (blockade current histograms); assay type: binding; settings: 1 micromolar alpha-synuclein, 20 micromolar compound; for nanopore profile (bumping peak / binding): FIG. 3
# Experimental: The bifunctional molecules were characterized by four different methods. […] If the compound causes a more compact conformation, then the alpha-synuclein can no longer translocate and it simply bumps into the pore giving rise to a very small change in the blockade current.^44-46
# (§1) Nanopore analysis and isothermal titration calorimetry were performed as described previously.^21,54
# [2] = target: T1, alpha-synuclein; test: Isothermal titration calorimetry (ITC) binding to alpha-synuclein; settings: for increase of Ka for a 10-fold decrease in ionic strength: 100 mM KCl versus 1.0M KCl; for # Binding sites: Table 2; for Bind to N and C?: binds to both N and C portions of alpha-synuclein; for binding constants as measured by ITC, order of magnitude: summary statement; for Kd: read-out: Ka (converted); on Bind to N and C?: key: Y indicates yes; N indicates no
# Experimental: as §1
# [3] = system: preformed alpha-synuclein-GFP foci in yeast strain 2AS; test: Yeast recovery assay, fluorescence microscopy of preformed AS-GFP foci; assay type: cell-based; settings: for effect on preformed large foci of alpha-synuclein: compound added 6 hours after induction with 5 mM galactose
# Experimental: (§2) For Analysis of AS-GFP distribution, the 2AS strain was grown overnight in drop-out media. After normalization of culture density, galactose was administered to a final concentration of 5 mM. Fluorescence images were obtained at zero time, 3 hours, 6 hours, 9 hours and 12 hours. For the yeast recovery assay, yeast cells were obtained after 6 hours induction with 5 mM galactose concentration, washed in galactose free media and the compounds were added to a final concentration of 1 micromolar in a 2 mL reaction mixture. The culture was incubated at 30° C. for 3, 6, and 9 hour intervals. Images were obtained at each interval using an Olympus Infinity (BX51) fluorescence microscope at 100× magnification.
# [4] = system: alpha-synuclein in substantia nigra; test: Immunohistochemistry of alpha-synuclein in substantia nigra of ASIA-treated rats; assay type: in vivo, rat; settings: 7 days of chronic injections
# Experimental: (§3) male Sprague-Dawley rats are used (200 g-300 g). All animals are handled ethically following approved protocols. For the first round of studies, rats are divided into five treatment groups:
# (§4) Rats are subjected to 7-day chronic injection of 3 mg/kg of each test compound, and a forced swim test is conducted after the seventh day to measure motor deficits. […] For a second round of studies, rats are divided into four treatment groups, and the same experiments were repeated:
# (§5) Tissue sections of substantia nigra from each of the treatment groups in the rat studies were evaluated for the presence of tyrosine hydroxylase, DNA (using the nuclear stain DAPI) and alpha-synuclein using immunohistochemistry. After behavioural tests were completed, the rats were euthanized, perfused and fixed in 4% paraformaldehyde. 40 μm brain slices were utilized for the immunohistochemistry procedure. Anti-Tyrosine Hydroxylase—a primary antibody for tyrosine positive neurons, host species rabbit, Millipore, Sigma Aldrich. DAPI—nuclear stain already pre-conjugated (NucBlue Fixed Cell Stain ReadyProbe reagent, Thermo Fisher Scientific). Anti-Alpha Synuclein—primary antibody for Anti-Synuclein, host species mouse, Abcam. Primary antibodies were diluted 1:500. Alexa Fluoro 488 Donkey anti-rabbit IgG—secondary antibody with fluorescent tag, Invitrogen, Thermo Fisher Scientific. Alexa Fluoro 594 Goat anti-mouse IgG—secondary antibody with fluorescent tag, Life Technologies, Thermo Fisher Scientific. Secondary antibodies were diluted 1:1000. Thioflavin S—stain for alpha-synuclein aggregates, Sigma Aldrich. Thioflavin S stock concentration at 5 mg/ml. Final dilution 1:100.
# Tyrosine hydroxylase is a marker for dopaminergic neurons and is used to confirm that the desired cells are being imaged. DAPI (4′,6-diamidino-2-phenylindole) is a stain that binds to A-T rich regions in DNA, and is used to identify cell nuclei. Thioflavin S is used to stain aggregated proteins such as amyloid plaques. A higher level of staining with thioflavin S is indicative of a higher degree of protein aggregation.
# [5] = system: yeast strain 2AS (2 copies of AS-GFP gene); assay type: cell-based
# Experimental: (§6) Third, the drugs were assayed in a yeast model of Parkinson's Disease, which expresses an alpha-synuclein-Green Fluorescent Protein (AS-GFP) construct under the control of a galactose promoter.
# Construction of the 1AS and 2AS strains has been described in detail previously.^55 Strains were grown in YPD supplemented with 30 μg/ml of all amino acids. The OD600 was adjusted to 0.05 in drop-out media (no uracil) at 30° C. Drugs were dissolved in methanol at 0.01 micromolar, 0.1 micromolar, 1 micromolar or 10 micromolar followed by addition of 100 micromolar or 5 mM galactose to a final volume of 10 mL.
# [6] = system: yeast strain 2AS; test: Yeast recovery assay, growth of 2AS after 6 hours galactose induction; assay type: cell-based
# [7] = system: male Sprague-Dawley rats with increased alpha-synuclein expression; test: Forced swim test in ASIA-treated rats; assay type: in vivo, rat; settings: for success in forced swim test / vigor in forced swim test: last three minutes of the test
# Experimental: as §3, §4
# The forced swim test is carried out by immersing the rat in water that is sufficiently deep to force the rat to swim. The forced swim test is scored based on the following criteria:
# Vigor and success are measures of motor function. Immobility is thought to be a measure of depression.^59 Based on videos of the forced swim test, the amount of time that each rat was motionless was calculated as a form of scoring depression for each treatment. Statistical analysis was carried out using an ordinary one-way ANOVA and Tukey multiple comparisons test.
# [8] = system: alpha-synuclein-GFP aggregation in yeast strain 2AS; assay type: cell-based; settings: 1 micromolar compound, 5 mM galactose; for AS-GFP foci / fluorescence pattern: up to 12 hours
# Experimental: as §6
# as §2, with “Fluorescence images were obtained at zero time, 3 hours, 6 hours, 9 hours and 12 hours.” left out
# [9] = system: protein aggregation in substantia nigra; test: Thioflavin S staining of substantia nigra of ASIA-treated rats; assay type: in vivo, rat
# Experimental: as §4
# as §5, with “Thioflavin S stock concentration at 5 mg/ml. Final dilution 1:100.” left out
# [10] = target: T1, alpha-synuclein; settings: 10 micromolar compound, shown previously; cited from earlier work
# [11] = ITC in 1.0M KCl, bifunctional molecules (or monomers) per alpha-synuclein molecule, best fit
# [12] = 1 micromolar compound added after 6 hours of 5 mM galactose and wash
# [13] = 1 micromolar compound + 5 mM galactose
Compound,"major peak, blockade current [1] [pA]",nanopore profile (bumping peak / binding) [1],increase of Ka for a 10-fold decrease in ionic strength [2],# of Binding sites ([2]; ITC in 100 mM KCl),Ka ([2]; ITC in 100 mM KCl) [M⁻¹],Ka ([2]; ITC in 1.0M KCl) [M⁻¹],"# of Binding sites [2, 11]",# Binding sites [2],"Ka ([2]; Table 2, ITC) [M⁻¹]",Bind to N and C? [2],"binding constants as measured by ITC, order of magnitude [2]",effect on preformed large foci of alpha-synuclein [3],level of alpha-synuclein staining in substantia nigra ([4]; ASIA + compound 3 mg/kg),"growth of 2AS yeast [5, 13]",immobility in forced swim test ([7]; ASIA + compound 3 mg/kg),success in forced swim test ([7]; ASIA + compound 3 mg/kg),vigor in forced swim test ([7]; ASIA + compound 3 mg/kg),AS-GFP foci / fluorescence pattern [8],"major peak, blockade current, compound alone [10]",formation of foci delayed until (time after induction) [8] [h],other results
Cn1c(=O)c2c(nc(CCCCCCNC3CCc4ccccc43)n2C)n(C)c1=O (racemic) [Compound C8-6-I],−68,do not have a significant bumping peak,approximately 10 fold,1,560000,53000,1,1,53000,Y,~10^5 M^−1,can cause preformed large foci of alpha-synuclein to dissipate,reduced,essentially normal,improved,improved success,improved vigor,by 12 hours the peripheral halo is restored,–,–,"fluorescence pattern after compound addition to cells with preformed foci [3, 12]: By 9 hours, the peripheral location is restored and the halo reappears; level of alpha-synuclein staining in substantia nigra ([4]; ASIA + compound 5 mg/kg): reduced; growth of 2AS yeast ([5]; 0.1 micromolar compound + 5 mM galactose): normal growth; time of resumption of growth [6, 12]: ~8 h; time of resumption of growth ([6]; 10 micromolar compound added after 6 hours of 5 mM galactose and wash): about 6 hours; immobility in forced swim test ([7]; ASIA + compound 5 mg/kg): further improved; success in forced swim test ([7]; ASIA + compound 5 mg/kg): further improved success; vigor in forced swim test ([7]; ASIA + compound 5 mg/kg): further improved vigor; degree of protein aggregation, thioflavin S staining ([9]; ASIA + compound 3 mg/kg): decreases the degree of protein aggregation; degree of protein aggregation, thioflavin S staining ([9]; ASIA + compound 5 mg/kg): decreases the degree of protein aggregation"
Cn1c(=O)c2c(nc(CCCCCCN3CCCC3c3cccnc3)n2C)n(C)c1=O (racemic) [Compound C8-6-N],−55,do not have a significant bumping peak,approximately 10 fold,1,480000,43000,1,1,43000,Y,~10^5 M^−1,can cause preformed large foci of alpha-synuclein to dissipate,–,essentially normal,–,–,–,similar,–,–,–
"Cn1c(=O)c2c(ncn2C)n(C)c1=O [Caffeine, caffeine, reference compound]",–,–,–,–,–,–,1,1,–,Y,–,–,–,–,–,–,–,–,about −76 pA,9,–
"NC1Cc2ccccc2C1 [Compound 2-aminoindan, 2-aminoindan, reference compound]",–,–,–,–,–,–,–,–,–,–,–,–,considerably increased,–,significantly increases immobility,decreased success,decreased vigor,–,–,–,–
"CN(C)C(=N)N=C(N)N [Metformin, metformin, reference compound]",–,–,–,–,–,–,1,3,–,N,–,–,–,–,–,–,–,–,about −65 pA,9,"Kd ([2]; ITC in 1.0M KCl): 109 nM; Kd ([2]; Table 2, ITC): 111 nM; growth of 2AS yeast ([5]; 1 micromolar compound + 100 micromolar galactose): rate of growth which is similar to that shown by the WT strain"
